According to article PMC5363373, “Zirconium tetraazamacrocycle complexes display extraordinary stability and provide a new strategy for zirconium-89-based radiopharmaceutical development” (Chemical Science, 2016):
Values joined by “and” are separate entries in the source; they are usually repeats but may differ in a detail not shown here. Equal values may be shown once.

What was measured:
[1] = In vitro serum stability (radio-ITLC); format: in vitro ADME; settings: 37 C, after 7 days
Procedure: In vitro serum stability. In vitro serum stability was carried out by adding 10 µL of each 89Zr-labeled complex (70 μCi, 2.59 MBq) to 500 µL of human serum. The solutions (n=4) were incubated at 37 °C for 7 days and were analyzed daily for 1 week by radio -TLC using Varian ITLC-SA strips and 0.1 M EDTA (pH 5) as the mobile phase and gamma counting using an energy window of 500-1500 keV and standard protocols . Serum samples were also analyzed after 7 days by size exclusion chromatography (SEC) using a Superdex 200 10/300 GLTM column (GE Healthcare Life Sciences, Piscataway, NJ) and phosphate buffered saline (PBS) as eluent with a flow rate of 0.5 mL/min.
Figure S30. Radio-ITLC of 89Zr-DOTA solution in human serum at 37 °C after 0 h (a) and 7 days (b). […]

[2] = In vitro metal competition study; format: physicochemical; settings: for % Intact of 89Zr-complexes: PBS pH 7.4, 37 C
Procedure: In vitro Metal Competition study. To a solution of metal cations [iron (III) chloride, cobalt (II) chloride, zinc (II) chloride, copper (II) chloride, magnesium (II) chloride, gallium (III) nitrate, gadolinium (III) chloride] (1 mM, 200 µL), was added 89Zr-labeled complex (0.1 mM, 10 µL, 80 μCi, 2.96 MBq) in PBS, pH 7.4. The resulting solutions (n = 3) were incubated at 37 °C for 7 days in a thermomixer. Dissociation of 89Zr from 89Zr-complexes was monitored by radio-TLC at 2 h, 1 d, 4 d and 7 d time point. All studies were performed in triplicate.

Biodistribution studies = format: in vivo, female NIH Swiss mice
Procedure: Biodistribution Studies. Biodistribution studies were conducted using a modified literature procedure. 7 Briefly, female NIH Swiss mice (6-8 wk old, n=6) were injected with each 89Zr-labeled complex (0.55 MBq (15 μCi)/mouse) via the tail vein, and sacrificed at 2, 4, 24, 48, 72 h post-injection. Organs and tissues of interest were excised, weighted, and counted on a Perkin Elmer 2480 Wizard® gamma counter (Waltham, MA). The percent injected dose per gram (%ID/g) and percent injected dose per organ (%ID/organ) were calculated by comparison to a weighed, counted standard for each group (Tables S9 – S12).
Statistical Methods. All of the data are presented as mean±SD or mean (95% Confidence Interval). For statistical classification a student’s t test (two-tailed, unpaired) was performed using GraphPad Prism (San Diego, CA). Any p<0.05 was considered significant.

[3] = In vitro EDTA challenge study; format: physicochemical
Procedure: In vitro EDTA challenge study. In vitro EDTA challenge study was carried out by adding 10 µL of each 89Zr-labeled complex (70 μCi, 2.59 MBq) to 500 µL of EDTA (10 mM, 50 mM and 100 mM: pH 5 and pH 7) with a 1:100, 1:500, and 1:1000 ratio of ligand/EDTA. The solutions (n=4) were incubated at 37 °C for 7 days in a thermomixer. Samples were analyzed at 30 min, 1 h, 3 h, 6 h, 1 d, 3 d, 5 d and 7 d post administration to EDTA by radio-TLC using Varian ITLC-SA strips and 0.1 M EDTA (pH 5) as the mobile phase and gamma counting using an energy window of 500-1500 keV and standard protocols .

[4] = mice, intravenous, 72 h post-injection

Radio-ITLC peak of complex in human serum [1]: 100% | % Intact of 89Zr-complexes ([2]; Co2+, 2 h): 100% | % Intact of 89Zr-complexes ([2]; Co2+, 1 d): 100% | % Intact of 89Zr-complexes ([2]; Co2+, 4 d): 100% | % Intact of 89Zr-complexes ([2]; Co2+, 7 d): 100% | % Intact of 89Zr-complexes ([2]; Cu2+, 2 h): 100% | % Intact of 89Zr-complexes ([2]; Cu2+, 1 d): 100% | % Intact of 89Zr-complexes ([2]; Cu2+, 4 d): 100% | % Intact of 89Zr-complexes ([2]; Cu2+, 7 d): 100% | % Intact of 89Zr-complexes ([2]; Fe3+, 2 h): 100% | % Intact of 89Zr-complexes ([2]; Fe3+, 1 d): 100% | % Intact of 89Zr-complexes ([2]; Fe3+, 4 d): 100% | % Intact of 89Zr-complexes ([2]; Fe3+, 7 d): 100% | % Intact of 89Zr-complexes ([2]; Ga3+, 2 h): 100% | % Intact of 89Zr-complexes ([2]; Ga3+, 1 d): 100% | % Intact of 89Zr-complexes ([2]; Ga3+, 4 d): 100% | % Intact of 89Zr-complexes ([2]; Ga3+, 7 d): 100% | % Intact of 89Zr-complexes ([2]; Gd3+, 2 h): 100% | % Intact of 89Zr-complexes ([2]; Gd3+, 1 d): 100% | % Intact of 89Zr-complexes ([2]; Gd3+, 4 d): 100% | % Intact of 89Zr-complexes ([2]; Gd3+, 7 d): 100% | % Intact of 89Zr-complexes ([2]; Mg2+, 2 h): 100% | % Intact of 89Zr-complexes ([2]; Mg2+, 1 d): 100% | % Intact of 89Zr-complexes ([2]; Mg2+, 4 d): 100% | % Intact of 89Zr-complexes ([2]; Mg2+, 7 d): 100% | % Intact of 89Zr-complexes ([2]; Zn2+, 2 h): 100% | % Intact of 89Zr-complexes ([2]; Zn2+, 1 d): 100% | % Intact of 89Zr-complexes ([2]; Zn2+, 4 d): 100% | % Intact of 89Zr-complexes ([2]; Zn2+, 7 d): 100% | Demetallation in metal competition ([2]; excess metal salts in aqueous buffer, over the 7 day experiment): no demetallation | Blood (Biodistribution studies; 24 h, current study): 0.001±0.000 % ID/g | Bone (Biodistribution studies; 24 h, current study): 0.036±0.008 % ID/g | Heart (Biodistribution studies; 24 h, current study): 0.016±0.004 % ID/g | Kidney (Biodistribution studies; 24 h, current study): 0.317±0.054 % ID/g | Liver (Biodistribution studies; 24 h, current study): 0.068±0.004 % ID/g | Muscle (Biodistribution studies; 24 h, current study): 0.004±0.001 % ID/g | Radioactivity in bone (Biodistribution studies; [4]): 0.025 ± 0.009 % ID per g | Radioactivity in kidney (Biodistribution studies; [4]): 0.078 ± 0.009 % ID per g | Radioactivity in liver (Biodistribution studies; [4]): 0.021 ± 0.002 % ID per g | Radioactivity retention in bone tissue over time (Biodistribution studies; mice, time points up to 72 h): remained low | Transchelation in EDTA challenge ([3]; 100-, 500-, and 1000-fold excess of EDTA at pH 5 or pH 7 over 7 days): did not undergo transchelation | % Intact of 89Zr-complexes ([3]; EDTA 100-fold, pH 5.0, 37 C, 1 h): 100% | % Intact of 89Zr-complexes ([3]; EDTA 100-fold, pH 5.0, 37 C, 1 d): 100% | % Intact of 89Zr-complexes ([3]; EDTA 100-fold, pH 5.0, 37 C, 3 d): 100% | % Intact of 89Zr-complexes ([3]; EDTA 100-fold, pH 5.0, 37 C, 5 d): 100% | % Intact of 89Zr-complexes ([3]; EDTA 100-fold, pH 5.0, 37 C, 7 d): 100% | % Intact of 89Zr-complexes ([3]; EDTA 100-fold, pH 7.0, 37 C, 1 h): 100% | % Intact of 89Zr-complexes ([3]; EDTA 100-fold, pH 7.0, 37 C, 1 d): 100% | % Intact of 89Zr-complexes ([3]; EDTA 100-fold, pH 7.0, 37 C, 3 d): 100% | % Intact of 89Zr-complexes ([3]; EDTA 100-fold, pH 7.0, 37 C, 5 d): 100% | % Intact of 89Zr-complexes ([3]; EDTA 100-fold, pH 7.0, 37 C, 7 d): 100% | % Intact of 89Zr-complexes ([3]; EDTA 500-fold, pH 5.0, 37 C, 1 h): 100% | % Intact of 89Zr-complexes ([3]; EDTA 500-fold, pH 5.0, 37 C, 1 d): 100% | % Intact of 89Zr-complexes ([3]; EDTA 500-fold, pH 5.0, 37 C, 3 d): 100% | % Intact of 89Zr-complexes ([3]; EDTA 500-fold, pH 5.0, 37 C, 5 d): 100% | % Intact of 89Zr-complexes ([3]; EDTA 500-fold, pH 5.0, 37 C, 7 d): 100% | % Intact of 89Zr-complexes ([3]; EDTA 500-fold, pH 7.0, 37 C, 1 h): 100% | % Intact of 89Zr-complexes ([3]; EDTA 500-fold, pH 7.0, 37 C, 1 d): 100% | % Intact of 89Zr-complexes ([3]; EDTA 500-fold, pH 7.0, 37 C, 3 d): 100% | % Intact of 89Zr-complexes ([3]; EDTA 500-fold, pH 7.0, 37 C, 5 d): 100% | % Intact of 89Zr-complexes ([3]; EDTA 500-fold, pH 7.0, 37 C, 7 d): 100% | % Intact of 89Zr-complexes ([3]; EDTA 1000-fold, pH 5.0, 37 C, 1 h): 100% | % Intact of 89Zr-complexes ([3]; EDTA 1000-fold, pH 5.0, 37 C, 1 d): 100% | % Intact of 89Zr-complexes ([3]; EDTA 1000-fold, pH 5.0, 37 C, 3 d): 100% | % Intact of 89Zr-complexes ([3]; EDTA 1000-fold, pH 5.0, 37 C, 5 d): 100% | % Intact of 89Zr-complexes ([3]; EDTA 1000-fold, pH 5.0, 37 C, 7 d): 100% | % Intact of 89Zr-complexes ([3]; EDTA 1000-fold, pH 7.0, 37 C, 1 h): 100% | % Intact of 89Zr-complexes ([3]; EDTA 1000-fold, pH 7.0, 37 C, 1 d): 100% | % Intact of 89Zr-complexes ([3]; EDTA 1000-fold, pH 7.0, 37 C, 3 d): 100% | % Intact of 89Zr-complexes ([3]; EDTA 1000-fold, pH 7.0, 37 C, 5 d): 100% | % Intact of 89Zr-complexes ([3]; EDTA 1000-fold, pH 7.0, 37 C, 7 d): 100%
SMILES: O=C1CN2CCN3CCN4CCN(CC2)CC(=O)[O][89Zr]([O]1)([O]C(=O)C3)[O]C(=O)C4 [89Zr-DOTA]
Radioactivity in blood (Biodistribution studies; [4]): 0.0003 ± 0.001 % ID per g and 0.0003 ± 0.0008 % ID per g
